The NIST ThermoML archive (doi:10.1021/je900916e)
± gives the expanded uncertainty stated by the source.

Assay: cn = amount concentration of the nth substance listed, in mol/dm3
Conditions: 101 kPa, Liquid, Advanced Conductivity Orion 162A

CCCC[N+](CCCC)(CCCC)CCCC.O=C([O-])C(F)(F)C(F)(F)C(F)(F)C(F)(F)C(F)(F)C(F)(F)C(F)(F)F [tetrabutylammonium perfluorooctanoate] + O
Conditions | electrical conductivity [S/m]
283.1 K, c1 = 0.000329 | 0.00105 ± 1e-05
283.1 K, c1 = 0.000649 | 0.0019 ± 1e-05
283.1 K, c1 = 0.000962 | 0.00271 ± 1e-05
283.1 K, c1 = 0.001266 | 0.00351 ± 1e-05
283.1 K, c1 = 0.001562 | 0.00431 ± 1e-05
283.1 K, c1 = 0.001852 | 0.00505 ± 1e-05
283.1 K, c1 = 0.002134 | 0.00579 ± 1e-05
283.1 K, c1 = 0.00241 | 0.00643 ± 1e-05
283.1 K, c1 = 0.002678 | 0.00707 ± 2e-05
283.1 K, c1 = 0.002941 | 0.00749 ± 2e-05
283.1 K, c1 = 0.003198 | 0.00762 ± 2e-05
283.1 K, c1 = 0.003448 | 0.0077 ± 2e-05
283.1 K, c1 = 0.003814 | 0.00782 ± 2e-05
283.1 K, c1 = 0.004167 | 0.00793 ± 2e-05
283.1 K, c1 = 0.004508 | 0.00803 ± 2e-05
283.1 K, c1 = 0.004839 | 0.00812 ± 2e-05
283.1 K, c1 = 0.005159 | 0.00821 ± 2e-05
283.1 K, c1 = 0.005469 | 0.00831 ± 2e-05
288.15 K, c1 = 0.000247 | 0.00099 ± 1e-05
288.15 K, c1 = 0.000488 | 0.00175 ± 1e-05
288.15 K, c1 = 0.000723 | 0.00249 ± 1e-05
288.15 K, c1 = 0.000952 | 0.0032 ± 1e-05
288.15 K, c1 = 0.001176 | 0.00389 ± 1e-05
288.15 K, c1 = 0.001395 | 0.00457 ± 1e-05
288.15 K, c1 = 0.001609 | 0.00521 ± 1e-05
288.15 K, c1 = 0.001818 | 0.00582 ± 1e-05
288.15 K, c1 = 0.00202 | 0.00641 ± 1e-05
288.15 K, c1 = 0.002222 | 0.00704 ± 2e-05
288.15 K, c1 = 0.002418 | 0.00756 ± 2e-05
288.15 K, c1 = 0.002609 | 0.00796 ± 2e-05
288.15 K, c1 = 0.002796 | 0.00811 ± 2e-05
288.15 K, c1 = 0.002979 | 0.00819 ± 2e-05
288.15 K, c1 = 0.003246 | 0.0083 ± 2e-05
288.15 K, c1 = 0.003505 | 0.00839 ± 2e-05
288.15 K, c1 = 0.003838 | 0.00852 ± 2e-05
288.15 K, c1 = 0.004158 | 0.00863 ± 2e-05
288.15 K, c1 = 0.004466 | 0.00873 ± 2e-05
288.15 K, c1 = 0.004906 | 0.00888 ± 2e-05
288.15 K, c1 = 0.005321 | 0.00902 ± 2e-05
293.15 K, c1 = 0.000263 | 0.00116 ± 1e-05
293.15 K, c1 = 0.000519 | 0.0021 ± 1e-05
293.15 K, c1 = 0.000769 | 0.00299 ± 1e-05
293.15 K, c1 = 0.001013 | 0.00386 ± 1e-05
293.15 K, c1 = 0.00125 | 0.00471 ± 1e-05
293.15 K, c1 = 0.001481 | 0.00552 ± 1e-05
293.15 K, c1 = 0.001707 | 0.00626 ± 1e-05
293.15 K, c1 = 0.001928 | 0.00699 ± 2e-05
293.15 K, c1 = 0.002143 | 0.0077 ± 2e-05
293.15 K, c1 = 0.002353 | 0.00829 ± 2e-05
293.15 K, c1 = 0.002558 | 0.0085 ± 2e-05
293.15 K, c1 = 0.002759 | 0.00862 ± 2e-05
293.15 K, c1 = 0.002954 | 0.00871 ± 2e-05
293.15 K, c1 = 0.00324 | 0.00884 ± 2e-05
293.15 K, c1 = 0.003516 | 0.00895 ± 2e-05
293.15 K, c1 = 0.003784 | 0.00907 ± 2e-05
293.15 K, c1 = 0.004042 | 0.0092 ± 2e-05
293.15 K, c1 = 0.004375 | 0.00931 ± 2e-05
293.15 K, c1 = 0.004694 | 0.00944 ± 2e-05
293.15 K, c1 = 0.005 | 0.00956 ± 2e-05
298.15 K, c1 = 0.000248 | 0.00124 ± 1e-05
298.15 K, c1 = 0.00049 | 0.00229 ± 1e-05
298.15 K, c1 = 0.000728 | 0.0033 ± 1e-05
298.15 K, c1 = 0.000962 | 0.0043 ± 1e-05
298.15 K, c1 = 0.00119 | 0.00528 ± 1e-05
298.15 K, c1 = 0.001415 | 0.00618 ± 1e-05
298.15 K, c1 = 0.001636 | 0.00703 ± 2e-05
298.15 K, c1 = 0.001852 | 0.00789 ± 2e-05
298.15 K, c1 = 0.002064 | 0.00869 ± 2e-05
298.15 K, c1 = 0.002273 | 0.00907 ± 2e-05
298.15 K, c1 = 0.002477 | 0.00916 ± 2e-05
298.15 K, c1 = 0.002728 | 0.00927 ± 2e-05
298.15 K, c1 = 0.003094 | 0.00944 ± 2e-05
298.15 K, c1 = 0.003448 | 0.00959 ± 2e-05
298.15 K, c1 = 0.003814 | 0.00976 ± 2e-05
298.15 K, c1 = 0.004167 | 0.00992 ± 2e-05
298.15 K, c1 = 0.004592 | 0.01011 ± 2e-05
298.15 K, c1 = 0.005 | 0.01028 ± 2e-05
303.15 K, c1 = 0.000263 | 0.00148 ± 1e-05
303.15 K, c1 = 0.000519 | 0.00267 ± 1e-05
303.15 K, c1 = 0.000769 | 0.00383 ± 1e-05
303.15 K, c1 = 0.001013 | 0.00497 ± 1e-05
303.15 K, c1 = 0.00125 | 0.0061 ± 1e-05
303.15 K, c1 = 0.001481 | 0.00717 ± 2e-05
303.15 K, c1 = 0.001707 | 0.00814 ± 2e-05
303.15 K, c1 = 0.001928 | 0.00909 ± 2e-05
303.15 K, c1 = 0.002143 | 0.00964 ± 2e-05
303.15 K, c1 = 0.002353 | 0.00979 ± 2e-05
303.15 K, c1 = 0.002558 | 0.00989 ± 2e-05
303.15 K, c1 = 0.002759 | 0.00998 ± 2e-05
303.15 K, c1 = 0.002954 | 0.01005 ± 2e-05
303.15 K, c1 = 0.00324 | 0.01016 ± 2e-05
303.15 K, c1 = 0.003516 | 0.01026 ± 2e-05
303.15 K, c1 = 0.003784 | 0.01035 ± 2e-05
303.15 K, c1 = 0.004042 | 0.01044 ± 2e-05
303.15 K, c1 = 0.004375 | 0.01055 ± 2e-05
303.15 K, c1 = 0.004694 | 0.01065 ± 2e-05
308.15 K, c1 = 0.000309 | 0.00189 ± 1e-05
308.15 K, c1 = 0.00061 | 0.0034 ± 1e-05
308.15 K, c1 = 0.000904 | 0.00484 ± 1e-05
308.15 K, c1 = 0.00119 | 0.00633 ± 1e-05
308.15 K, c1 = 0.00147 | 0.00774 ± 2e-05
308.15 K, c1 = 0.001744 | 0.00909 ± 2e-05
308.15 K, c1 = 0.002011 | 0.01001 ± 2e-05
308.15 K, c1 = 0.002273 | 0.01017 ± 2e-05
308.15 K, c1 = 0.002423 | 0.01022 ± 2e-05
308.15 K, c1 = 0.002578 | 0.01026 ± 2e-05
308.15 K, c1 = 0.002728 | 0.0103 ± 2e-05
308.15 K, c1 = 0.002876 | 0.01034 ± 2e-05
